Experimental data: ChEMBL document CHEMBL3639188, “Tyrosine kinase inhibitors” (2014)

Target: High affinity nerve growth factor receptor (Homo sapiens, UniProt P04629)
Test: In Vitro Kinase Activity Assay: Compounds to be tested were dissolved in 100% DMSO in a range of concentrations from 10^-8 to 10^-3 M including negative control (DMSO), then diluted with Kinase Buffer (50 mM HEPES, pH 7.5, 1 mM EGTA, 10 mM MgCl2, 0.01% Tween-20, and 2 mM DTT, added fresh) to 4x the final concentration. The final curve included 11 concentrations (10^-11 to 10^-5 M) plus negative …

Chain of High affinity nerve growth factor receptor (P04629 whole entry): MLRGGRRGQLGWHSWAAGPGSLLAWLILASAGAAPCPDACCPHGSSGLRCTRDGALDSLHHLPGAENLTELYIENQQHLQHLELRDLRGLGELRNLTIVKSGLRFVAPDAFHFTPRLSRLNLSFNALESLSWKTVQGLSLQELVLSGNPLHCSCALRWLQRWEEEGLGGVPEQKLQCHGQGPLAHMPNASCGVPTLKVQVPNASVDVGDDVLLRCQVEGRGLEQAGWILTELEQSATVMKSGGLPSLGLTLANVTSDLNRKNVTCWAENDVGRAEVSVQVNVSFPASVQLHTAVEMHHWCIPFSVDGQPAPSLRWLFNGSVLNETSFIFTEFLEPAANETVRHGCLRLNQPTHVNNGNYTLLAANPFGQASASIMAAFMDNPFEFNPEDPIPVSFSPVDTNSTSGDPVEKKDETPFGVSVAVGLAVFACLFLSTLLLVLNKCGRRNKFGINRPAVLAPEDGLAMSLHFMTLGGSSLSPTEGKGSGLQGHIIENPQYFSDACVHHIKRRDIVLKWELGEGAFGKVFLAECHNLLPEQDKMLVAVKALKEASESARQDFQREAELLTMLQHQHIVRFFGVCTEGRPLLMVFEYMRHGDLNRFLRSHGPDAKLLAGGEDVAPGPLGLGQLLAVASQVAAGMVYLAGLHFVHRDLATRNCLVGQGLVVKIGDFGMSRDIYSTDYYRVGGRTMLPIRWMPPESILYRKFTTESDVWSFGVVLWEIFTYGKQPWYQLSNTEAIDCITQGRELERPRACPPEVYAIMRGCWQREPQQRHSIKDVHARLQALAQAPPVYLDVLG

IC50: 6.35 nM
Structure (SMILES): CC(Cc1cc(F)ccc1F)Nc1cc[nH]c(=O)c1-c1nc2cc3c(cc2[nH]1)C(=O)N(C1CCN(C)CC1)C3=O (stereo unspecified)
